Our source for the IC50 values is patent publication US20180369268A1, “METHODS FOR IDENTIFYING INHIBITORS OF "STIMULATOR OF INTERFERON GENE"- DEPENDENT INTERFERON PRODUCTION” (ADURO BIOTECH, INC., priority 2015, published 2018).

SMILES strings stand for the structures.

One test deals with T1, STING in THP1 cells (HAQ allele) (Homo sapiens, UniProt Q86WV6, G230A/H232R/R293Q/R71H).
T1 construct: host or cells: THP-1 dual reporter cells
T1 sequence (Q86WV6 whole entry R71H/G230A/H232R/R293Q): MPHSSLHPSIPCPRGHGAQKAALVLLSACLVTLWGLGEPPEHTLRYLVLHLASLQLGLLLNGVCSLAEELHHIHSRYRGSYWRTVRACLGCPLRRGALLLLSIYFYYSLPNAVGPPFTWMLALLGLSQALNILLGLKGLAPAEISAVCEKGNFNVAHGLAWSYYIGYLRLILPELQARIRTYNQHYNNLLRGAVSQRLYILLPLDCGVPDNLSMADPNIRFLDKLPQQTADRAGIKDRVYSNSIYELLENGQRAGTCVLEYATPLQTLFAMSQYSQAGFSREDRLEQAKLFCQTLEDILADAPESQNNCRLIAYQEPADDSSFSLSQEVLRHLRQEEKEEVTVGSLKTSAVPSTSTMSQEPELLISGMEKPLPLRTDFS
The experiment in a line: THP-1 competition assay with STING agonist 2′3′-RR-(A)(A) (IRF-3 luciferase reporter). It counts as cell-based.
Conditions: not given
As for the experimental part:
The scaffold molecules and STING inhibitory compounds as described herein are assayed for their ability to inhibit the induction of STING dependent IFN-β production by an agonist compound in a competition assay. Relative induction of IRF-3 signaling in THP-1 cells (HAQ allele) was measured after stimulating the cells with a mix of a scaffold molecule (or any putative STING antagonist) titrated against a constant concentration of the STING agonist 2′3′-RR-(A)(A) in PB buffer (50 mM HEPES pH 7.5, 100 mM KCl, 3 mM MgCl2, 0.1 mM DTT, 85 mM sucrose, 0.2% BSA, 1 mM ATP, 0.1 mM GTP).
One day prior to performing the assay, THP-1 dual (Invivogen) reporter cells were plated at 500,000 cells/mL in 200 μL per well in a 96-well plate and differentiated overnight with 3 μg/mL phorbal myristate acetate in RPMI medium 1640 (4.5 g/L D-glucose, 2.383 g/L HEPES, 300 mg/L L-glutamine, 1.5 g/L sodium bicarbonate, 110 mg/L sodium pyruvate, 10% heat-inactivated fetal bovine serum, 1× penicillin/streptomycin, 0.1 mg/mL normocin).
On the day of the assay, the media was removed from the wells and replaced with 150 μL of fresh media. The titrations against 2′ 3′-RR-(A)(A) in a final volume of 100 μL were made as follows: two-fold dilutions (2,000 μM-3.9 μM) of the scaffold molecule into PB buffer containing 100 μM 2′3′-RR-(A)(A) for a final concentration of 50 μM 2′3′-RR-(A)(A). Compounds were tested in biological triplicate.
The cells were then stimulated with 25 μL of each titration for 30 minutes at 37° C. in a CO2 incubator. After stimulating, the cells were washed twice, first with 100 μL and then 150 μL of fresh media. After washing, 150 μL of media was added to each well and the cells were incubated for 17 hours overnight at 37° C. in a CO2 incubator.
To detect IRF-3 signaling, 50 μL of luciferase substrate (Invivogen QUANTI-Luc coelenterazine-based luminescence reagent reconstituted in 25 mL water) was added to 10 μL of supernatant from each well in a 96-well white opaque plate. Luminescence was measured using a SpectraMax M3 plate reader (Molecular Devices) and relative fold-induction was calculated as the values obtained from wells containing both the scaffold molecule and 2′3′-RR-(A)(A) divided by the values obtained from wells containing 2′3′-RR-(A)(A) alone. The average of the relative fold-induction was plotted against the log concentration of the antagonist. Agonist compounds 2′3′-RR-(G)(A) and RR-(A)(A) were run as controls in this assay (see FIGS. 2A and 2B).
The results are provided for control compounds in FIGS. 2A and 2B and scaffold molecules in FIGS. […]: 2′3′-SR-(3′OTBS-A)(2′F-A) (FIG. 3A, Comp. 6a), SR-(2′F-A)(2′OTBS-A) (FIG. 3B, Comp. 18a), RR-(2,6-DAP)(2,6-DAP) (FIG. 3C, Comp. 23), RS-(2,6-DAP)(2,6-DAP) (FIG. 3D, Comp. 23a), (6-O-propargyl-G)(G) (FIG. 3E, Comp. 25), RR-(2′F-ibG)(2′F-ibG) (FIG. 3F, Comp. 32), RR-(2′F-C)(2′F-A) (FIG. 3G, Comp. 37), RS-(2′F-C)(2′F-A) (FIG. 3H, Comp. 37a), 3′2′-RR-(ibG)(BzA) (FIG. 3I, Comp. 42), 3′2′-SS-(G)(A) (FIG. 3J, Comp. 43), dithio-3′2′-(2′OTBS-G)(3′OTBS-A) isomer 1 (FIG. 3K, Comp. 49, isomer 1), dithio-3′2′-(2′OTBS-G)(3′OTBS-A) isomer 2 (FIG. 3L, Comp. 49, isomer 2), Beta-L-SS-(A)(A) (FIG. 3M, Comp. 48), Beta-L-RS-(A)(A) (FIG. 3N, Comp. 48a), and Beta-L-RR-(A)(A) (FIG. 3O, Comp. 48b). Isomer 1 and 2 of Compound 49 are different isomers, and are each one of compound 49a, 49b, 49c or 49d.
In general terms: A reporter such as luciferase makes a cellular process visible.
Regarding `CC(C)(C)[Si](C)(C)O[C@H]1[C@H]2O[P@@](=O)(S)OC[C@H]3O[C@@H](n4cnc5c(N)ncnc54)[C@H](F)[C@@H]3O[P@](=O)(S)OC[C@H]1O[C@H]2n1cnc2c(N)ncnc21` [Compound 6a, dithio-[SP, RP]-cyclic-[3′OTBS-A(2′,5′)p-2′F-A(3′,5′)p]], the IC50 (commonly the point on the concentration scale where inhibition reaches its midpoint) turned out to be 2170 µM.

Still in this test, the particulars now being: 50 μM 2′3′-RR-(A)(A), scaffold 2,000 μM-3.9 μM, without digitonin, IRF-3 reporter; read-out: IC50 inhibition of 2′3′-RR-(A)(A) agonist activity without digitonin in THP1 cells (HAQ allele).
Consider `CC(C)C(=O)Nc1nc2c(ncn2[C@@H]2O[C@@H]3CO[P@@](=O)(S)O[C@@H]4[C@H](O)[C@@H](CO[P@@](=O)(S)O[C@H]3[C@H]2O)O[C@H]4n2cnc3c(NC(=O)c4ccccc4)ncnc32)c(=O)[nH]1` [Compound 42, dithio-[RP, RP]-cyclic-[ibG(3′,5′)p-BzA(2′,5′)p]], for which the IC50 turned out to be 966 µM. Turning to `Nc1ccn([C@@H]2O[C@@H]3CO[P@](=O)(S)O[C@H]4[C@@H](F)[C@H](n5cnc6c(N)ncnc65)O[C@@H]4CO[P@@](=O)(S)O[C@H]3[C@H]2F)c(=O)n1` [Compound 37a, 4-amino-1-((2R,3R,3aR,5R,7aR,9R,10R, 10aR,12S,14aR)-9-(6-amino-9H-purin-9-yl)-3,10-difluoro-5,12-dimercapto-5,12-dioxidooctahydro-2H,7H-difuro[3,2-d: 3′,2′-j][1,3,7,9]tetraoxa[2,8]diphosphacyclododecin-2-yl)pyrimidin-2(1H)-one], the IC50 worked out at 3200 µM. Take `Nc1ncnc2c1ncn2[C@H]1O[C@H]2CO[P@@](=O)(S)O[C@@H]3[C@H](O)[C@@H](n4cnc5c(N)ncnc54)O[C@H]3CO[P@@](=O)(S)O[C@@H]2[C@@H]1O` [Compound 48b, triethylammonium (2S,3S,3R,5R,7aS,9S,10S,10aR,12R,14aS)-2,9-bis(6-amino-9H-purin-9-yl)-3,10-dihydroxyoctahydro-2H,7H-difuro[3,2-d: 3′,2′-j][1,3,7,9]tetraoxa[2,8]diphosphacyclododecine-5,12-bis(thiolate) 5,12-dioxide]: the half-maximal inhibitory concentration (IC50) turned out to be 342 µM. As for `CC(C)C(=O)Nc1nc2c(ncn2[C@@H]2O[C@@H]3CO[P@@](=O)(S)O[C@H]4[C@@H](F)[C@H](n5cnc6c(=O)[nH]c(NC(=O)C(C)C)nc65)O[C@@H]4CO[P@@](=O)(S)O[C@H]3[C@H]2F)c(=O)[nH]1` [Compound 32, N,N′-(((2R,3R,3aR,5R,7aR,9R,10R,10aR,12R,14aR)-3,10-difluoro-5,12-dimercapto-5,12-dioxidooctahydro-2H, 7H-difuro[3,2-d:3′,2′-j][1,3,7,9]tetraoxa[2,8]diphosphacyclododecine-2,9-diyl)bis(6-oxo-6,9-dihydro-1H-purine-9,2-diyl))bis(2-methylpropanamide)], the IC50 worked out at 803 µM. Take `Nc1nc(N)c2ncn([C@@H]3O[C@@H]4CO[P@@](=O)(S)O[C@H]5[C@@H](O)[C@H](n6cnc7c(N)nc(N)nc76)O[C@@H]5CO[P@@](=O)(S)O[C@H]4[C@H]3O)c2n1` [Compound 23, (2R,3R,3aS,5R,7aR,9R,10R,10aS,12R,14aR)-2,9-bis(2,6-diamino-9H-purin-9-yl)-3,10-dihydroxy-5,12-dimercaptooctahydro-2H,7H-difuro[3,2-d:3′,2′-j][1,3,7,9]tetraoxa[2,8]diphosphacyclododecine 5,12-dioxide]: the half-maximal inhibitory concentration (IC50) is 152 µM. Still for that read-out and setting: with `C#CCOc1nc(N)nc2c1ncn2[C@@H]1O[C@@H]2COP(=O)(O)O[C@H]3[C@@H](O)[C@H](n4cnc5c(=O)[nH]c(N)nc54)O[C@@H]3COP(=O)(O)O[C@H]2[C@H]1O` [compound 25, 2-amino-9-((2R,3R,3aS,7aR,9R,10R,10aS,14aR)-9-(2-amino-6-(prop-2-yn-1-yloxy)-9H-purin-9-yl)-3,5,10,12-tetrahydroxy-5,12-dioxidooctahydro-2H,7H-difuro[3,2-d:3′,2′-j][1,3,7,9]tetraoxa[2,8]diphosphacyclododecin-2-yl)-1,9-dihydro-6H-purin-6-one] the figure was 5010 µM. `Nc1ncnc2c1ncn2[C@H]1O[C@H]2CO[P@@](=O)(S)O[C@@H]3[C@H](O)[C@@H](n4cnc5c(N)ncnc54)O[C@H]3CO[P@](=O)(S)O[C@@H]2[C@@H]1O` [Compound 48a, Triethylammonium (2S,3S,3aR,5R,7aS,9S,10S,10aR,12S,14aS)-2,9-bis(6-amino-9H-purin-9-yl)-3,10-dihydroxyoctahydro-2H, 7H-difuro[3,2-d: 3′,2′-j][1,3,7,9]tetraoxa[2,8]diphosphacyclododecine-5,12-bis(thiolate) 5,12-dioxide]: the IC50 stood at 308 µM. With `Nc1nc(N)c2ncn([C@@H]3O[C@@H]4CO[P@@](=O)(S)O[C@H]5[C@@H](O)[C@H](n6cnc7c(N)nc(N)nc76)O[C@@H]5CO[P@](=O)(S)O[C@H]4[C@H]3O)c2n1` [Compound 23a, (2R,3R,3aS,5R,7aR,9R,10R,10aS,12S,14aR)-2,9-bis(2,6-diamino-9H-purin-9-yl)-3,10-dihydroxy-5,12-dimercaptooctahydro-2H,7H-difuro[3,2-d:3′,2′-j][1,3,7,9]tetraoxa[2,8]diphosphacyclododecine 5,12-dioxide], the IC50 worked out at 150 µM. In the case of `Nc1ncnc2c1ncn2[C@H]1O[C@H]2CO[P@](=O)(S)O[C@@H]3[C@H](O)[C@@H](n4cnc5c(N)ncnc54)O[C@H]3CO[P@](=O)(S)O[C@@H]2[C@@H]1O` [Compound 48, (2S,3S,3aR,5S,7aS,9S,10S,10aR,12S,14aS)-2,9-bis(6-amino-9H-purin-9-yl)-3,10-dihydroxy-5,12-dimercaptooctahydro-2H,7H-difuro[3,2-d:3′,2′-j][1,3,7,9]tetraoxa[2,8]diphosphacyclododecine 5,12-dioxide], the IC50 was 662 µM. Same read-out and setting: the same measure for `Nc1ccn([C@@H]2O[C@@H]3CO[P@@](=O)(S)O[C@H]4[C@@H](F)[C@H](n5cnc6c(N)ncnc65)O[C@@H]4CO[P@@](=O)(S)O[C@H]3[C@H]2F)c(=O)n1` [Compound 37, 4-amino-1-((2R,3R,3aR,5R,7aR,9R,10R,10aR,12R,14aR)-9-(6-amino-9H-purin-9-yl) 3,10-difluoro-5,12-dimercapto 5,12-dioxidooctahydro-2H,7H-difuro[3,2-d:3′,2′-j][1,3,7,9]tetraoxa[2,8]diphosphacyclododecin-2-yl)pyrimidin-2(1H)-one]: 4120 µM; for `Nc1nc2c(ncn2[C@@H]2O[C@@H]3CO[P@](=O)(S)O[C@@H]4[C@H](O)[C@@H](CO[P@](=O)(S)O[C@H]3[C@H]2O)O[C@H]4n2cnc3c(N)ncnc32)c(=O)[nH]1` [Compound 43]: 4040 µM.
